Each block holds one compound with its values, some of them ahead of it.
Key:
[1] = test system: radiocontrast media induced nephropathy; details: Shammas, 2001, Welch, 2002, Huber; cited from earlier work
Permeability (Table 1) = assay type: in vitro ADME
PGP = PGP (Homo sapiens, UniProt P08183); experiment: PGP-factor (Table 1); assay type: in vitro ADME
[2] = steady-state plasma levels in anesthetized L-NAME pretreated rats; assay type: in vivo, Sprague-Dawley rats; details: rat
Description: The radiocontrast media-dependent acute kidney failure was induced using an experimental protocol based on that published by the group of Osswald,^22 Male Sprague-Dawley rats of approximately 300 g body weight were acclimatized for at least 1 week before the start of the chronic pretreatment with the nitric oxide synthase inhibitor N-nitro-L-arginine methyl ester (L-NAME for 7-9 weeks at a daily dose of 5 mg/kg). For the experiments, the overnight fasted rats (which had continued free access to drinking water) were anesthetized with Inactin (80 mg/kg, given i.p. as a bolus). Catheters were placed (i) in the trachea, (ii) in one jugular vein (for radiocontrast medium administration, and background saline infusion; see below), (iii) in the other jugular vein for vehicle or sunstance 1 administration, (iv) in the carotid artery for blood sampling, and part of the background saline infusion; see below), and (v) in the bladder for urine collection. The rats were kept on a heated table to maintain their body temperature at 37° C. […] The measured values of urine volume, and urine levels of Na^+ were used to calculate the rates of diuresis and natriuresis over the time intervals mentioned above.

[3] = test system: phosphodiesterases (PDE 1, 2, 3, 5 and 6); experiment: inhibition of other phosphodiesterases (enzyme profiling); assay type: biochemical; details: relative to PDE4 inhibition
Text: (§1) The phosphodiesterase PDE4 inhibiting activity may be used for titration purposes of patients. The phosphodiesterase PDE4 inhibiting activity of the compounds described herein prevents overdosage of the selective A1 antagonist by alarming the patients with self-evident, non-serious signals like e.g. headache before serious events like e.g. CNS convulsion can occur.

[4] = test system: radiocontrast media-dependent acute kidney failure; experiment: diuresis and natriuresis following radiocontrast media (diatrizoate) in anesthetized rats; assay type: in vivo, Sprague-Dawley rats; details: for diuresis / sodium excretion: mean ± SEM
Description: The radiocontrast media-dependent acute kidney failure was induced using an experimental protocol based on that published by the group of Osswald,^22 Male Sprague-Dawley rats of approximately 300 g body weight were acclimatized for at least 1 week before the start of the chronic pretreatment with the nitric oxide synthase inhibitor N-nitro-L-arginine methyl ester (L-NAME for 7-9 weeks at a daily dose of 5 mg/kg). For the experiments, the overnight fasted rats (which had continued free access to drinking water) were anesthetized with Inactin (80 mg/kg, given i.p. as a bolus). Catheters were placed (i) in the trachea, (ii) in one jugular vein (for radiocontrast medium administration, and background saline infusion; see below), (iii) in the other jugular vein for vehicle or sunstance 1 administration, (iv) in the carotid artery for blood sampling, and part of the background saline infusion; see below), and (v) in the bladder for urine collection. The rats were kept on a heated table to maintain their body temperature at 37° C. After collecting urine samples for 60-90 min for baseline measurements, the animals received vehicle or substance 1 as follows: a loading bolus of 0.15, or 1.5 mg substance 1 per kg, or vehicle, in a volume of 1 mukg, was applied intravenously, followed by a continuous intravenous infusion at a rate of […] substance 1 per kg per min, or vehicle, in a volume of 11 μL/kg·min until the end of the experiment. With these dose regimens steady-state plasma levels of substance 1 were 59±23, and 314±36 ng/mL, respectively. Ten minutes after the start of the substance 1 (or vehicle) treatment, diatrizoate (meglumine salt, Urolux, 0.61 g diatrizoate/mL, corresponding to a total iodine content of 290 mg/mL, Sanochemia Diagnostics, Neuss, Germany), prewarmed at body temperature, was infused iv over 3 min at a dose of 2.55 mL/kg, corresponding to 740 mg iodine/kg (the timepoint of contrast medium administration was defined as t0). A background saline solution was infused from the beginning and maintained at a rate of ˜1.2 mL/h per 100 g until the end of the experiments (0.24 mL/h via the arterial catheter, and 0.96 mL/h via the venous line). This infusion was required to compensate for the volume loss due to the operation, and the subsequent blood sampling, but also to insure the patency of the arterial catheter between the blood sampling timepoints. Urine samples were collected according to the following schedule: baseline (60-90 min preceding the start of substance 1, or vehicle, administration), t0-30 min (0.5 h timepoint), 30-60 min (1 h timepoint), 60-120 min (2 h timepoint), and 120-180 min (3 h timepoint). Plasma samples were taken at the end of each of the above periods. The measured values of urine volume, and urine levels of Na^+ were used to calculate the rates of diuresis and natriuresis over the time intervals mentioned above.

[5] = test system: renal hemodynamics and oxygenation; experiment: renal blood flow and oxygenation following radiocontrast media (iodixanol) in anesthetized rats; assay type: in vivo, Wistar rats
Description: The experimental protocol was based on a previously published methodology. The experiments were performed using adult male 3-4 months old Wistar rats. Body weight ranged from 250 to 400 g. The rats received a standard chow diet. Feeding and drinking was discontinued approx. 12 hours before the surgery. The animals were anesthetized by intraperitoneal injection of urethane solution ([…]; 6 ml per kg), and placed on a heated table to maintain body temperature at 37° C. throughout surgery and subsequent experiments. After an incision in the left groin the femoral artery was carefully prepared and cannulated to measure the mean arterial blood pressure. Another catheter was placed into the carotid artery for administration of contrast medium. Finally, an inflatable cuff was placed around the abdominal aorta above the origin of the renal arteries. A servo controlled inflation of the cuff allowed for the reduction and maintenance of the renal perfusion pressure at a preset levels. Two 500 μm diameter optical fibers were implanted into the cortex and the outer medulla of left kidney to determine local laser-Doppler fluxes and an ultrasound transit time flowprobe was placed around the renal artery of the same kidney to determine total kidney blood flow (RBF). Renal oxygen levels (oxygen partial pressure=pO2) was likewise determined locally (cortical and medullary pO2, respectively; OxyLite, Oxford Optronics). After implantation and stabilization, the experiment was started by measuring hemodynamic and oxygenation parameters under baseline conditions. Vehicle or substance 1 (5 mg/kg as an intravenous bolus) were then administered. New measurements were performed, and 30 min after vehicle or substance 1 administration, lodixanol (Visipaque 320; 1.5 mL i.a.; Amersham Buchier, Braunschweig, Germany), or vehicle was applied. The experimental groups were thus: 1. Vehicle+Vehicle (‘control’), Vehicle+Visipaque, and sunstance 1+Visipaque.

phosphodiesterase PDE4 = phosphodiesterase PDE4 inhibition (enzyme profiling); assay type: biochemical; details: read-out: calculated pKi of the PDE4 inhibition (converted)
Text: as §1

adenosine A1 receptor = molecular target: T1, adenosine A1 receptor (Homo sapiens, UniProt P30542); experiment: receptor binding and enzyme profiling in a wide range of assays
T1 sequence (P30542 1-326): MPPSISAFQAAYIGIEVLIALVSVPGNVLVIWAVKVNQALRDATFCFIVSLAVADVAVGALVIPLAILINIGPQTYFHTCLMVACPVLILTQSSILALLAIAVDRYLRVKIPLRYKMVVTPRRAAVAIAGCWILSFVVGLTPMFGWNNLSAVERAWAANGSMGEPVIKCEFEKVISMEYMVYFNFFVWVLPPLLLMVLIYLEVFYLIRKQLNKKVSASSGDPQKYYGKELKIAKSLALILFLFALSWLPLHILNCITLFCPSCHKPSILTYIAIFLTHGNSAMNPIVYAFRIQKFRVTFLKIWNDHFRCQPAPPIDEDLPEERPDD
Text: as §1

[6] = Low dose, 0.5 h after CM (diatrizoate)
[7] = Low dose, 1 h after CM (diatrizoate)
[8] = Low dose, 2 h after CM (diatrizoate)
[9] = Low dose, 3 h after CM (diatrizoate)
[10] = high dose, 0.5 h after CM (diatrizoate)
[11] = high dose, 1 h after CM (diatrizoate)
[12] = high dose, 2 h after CM (diatrizoate)
[13] = high dose, 3 h after CM (diatrizoate)

PGP, sequence (P08183 whole entry): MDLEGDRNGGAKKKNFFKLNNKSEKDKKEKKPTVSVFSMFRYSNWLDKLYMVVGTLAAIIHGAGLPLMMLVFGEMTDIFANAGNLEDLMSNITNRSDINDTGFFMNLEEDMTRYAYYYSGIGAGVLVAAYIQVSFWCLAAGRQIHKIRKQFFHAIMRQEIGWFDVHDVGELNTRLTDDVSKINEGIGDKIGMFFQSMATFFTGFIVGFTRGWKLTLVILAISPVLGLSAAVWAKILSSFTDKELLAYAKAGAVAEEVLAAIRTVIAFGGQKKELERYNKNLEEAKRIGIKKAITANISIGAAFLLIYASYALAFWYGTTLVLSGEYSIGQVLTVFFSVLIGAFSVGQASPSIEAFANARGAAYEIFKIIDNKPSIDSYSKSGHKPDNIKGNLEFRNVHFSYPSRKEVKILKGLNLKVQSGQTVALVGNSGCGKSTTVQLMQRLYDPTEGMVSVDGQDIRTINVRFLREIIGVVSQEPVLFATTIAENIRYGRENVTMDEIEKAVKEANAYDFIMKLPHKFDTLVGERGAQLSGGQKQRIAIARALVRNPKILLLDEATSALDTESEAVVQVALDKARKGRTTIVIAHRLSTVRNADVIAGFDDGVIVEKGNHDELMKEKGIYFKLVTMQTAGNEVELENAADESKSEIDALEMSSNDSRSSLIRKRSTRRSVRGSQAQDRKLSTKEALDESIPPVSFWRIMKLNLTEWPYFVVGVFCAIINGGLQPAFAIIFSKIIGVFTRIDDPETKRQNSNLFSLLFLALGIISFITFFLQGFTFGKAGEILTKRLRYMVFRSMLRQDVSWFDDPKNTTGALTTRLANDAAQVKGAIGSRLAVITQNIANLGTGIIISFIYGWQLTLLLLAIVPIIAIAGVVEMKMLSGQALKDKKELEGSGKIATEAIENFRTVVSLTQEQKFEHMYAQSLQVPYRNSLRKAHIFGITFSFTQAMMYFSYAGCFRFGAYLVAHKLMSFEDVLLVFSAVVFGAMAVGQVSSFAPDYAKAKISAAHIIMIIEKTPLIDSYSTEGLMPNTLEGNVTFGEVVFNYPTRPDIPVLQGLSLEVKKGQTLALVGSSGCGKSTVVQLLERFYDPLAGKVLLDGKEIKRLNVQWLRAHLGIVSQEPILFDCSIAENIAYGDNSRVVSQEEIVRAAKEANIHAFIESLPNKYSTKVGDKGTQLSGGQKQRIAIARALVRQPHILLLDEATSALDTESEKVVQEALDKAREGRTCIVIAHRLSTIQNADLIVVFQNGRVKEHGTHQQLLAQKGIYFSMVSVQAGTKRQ

Structure (SMILES): Cn1c(=O)c2[nH]cnc2n(C)c1=O [Aminophylline]
protection against radiocontrast media induced nephropathy [1]: does not appear to add a protective role

Permeability (%) (Permeability (Table 1)): 31.1%
PGP-factor (PGP): 1.4
Structure (SMILES): CCCn1c(=O)c2[nH]c(C34CC5CC(CC3C5)C4)nc2n(CCC)c1=O [KW3902, reference compound]

steady-state plasma level ([2]; iv loading bolus 0.15 mg/kg, then infusion 1.5 pg per kg per min (so in the source)): 59 ± 23 ng/mL
steady-state plasma level ([2]; iv loading bolus 1.5 mg/kg, then infusion 15 pg per kg per min (so in the source)): 314 ± 36 ng/mL
Permeability (%) (Permeability (Table 1)): 37.4%
activities on other phosphodiesterases (PDE 1, 2, 3, 5 and 6), fold lower than on PDE4 [3]: at least 25 fold
PGP-factor (PGP): 1.5
Ki (phosphodiesterase PDE4): 750 nM
Structure (SMILES): CS(=O)(=O)O.OC1CCC(Nc2nc(-c3ccccc3)nc3[nH]ccc23)CC1 (stereo not drawn) [substance 1, 4-[(2-phenyl-7H-pyrrolo[2,3-o]pyrimidin-4-yl)amino]-trans-cyclohexanol methanesulfonate]
diuresis [4, 6]: 27.31 ± 2.36 mL per kg body weight per h
sodium excretion [4, 6]: 3039 ± 354 μmol per kg body weight per h
diuresis [4, 7]: 3.87 ± 0.40 mL per kg body weight per h
sodium excretion [4, 7]: 338 ± 81 μmol per kg body weight per h
diuresis [4, 8]: 3.34 ± 0.42 mL per kg body weight per h
sodium excretion [4, 8]: 613 ± 121 μmol per kg body weight per h
diuresis [4, 9]: 3.54 ± 0.50 mL per kg body weight per h
sodium excretion [4, 9]: 842 ± 121 μmol per kg body weight per h
persistence of the stimulating effect on diuresis ([4]; after contrast medium (diatrizoate) administration): at least 3 h
potassium excretion ([4]; after diatrizoate, throughout the experiment, not shown): not relevantly affected
chloride excretion ([4]; after diatrizoate, not shown): stimulated
diuresis [4, 10]: 28.01 ± 2.02 mL per kg body weight per h
sodium excretion [4, 10]: 3301 ± 306 μmol per kg body weight per h
diuresis [4, 11]: 4.97 ± 0.30 mL per kg body weight per h
sodium excretion [4, 11]: 520 ± 77 μmol per kg body weight per h
diuresis [4, 12]: 3.13 ± 0.27 mL per kg body weight per h
sodium excretion [4, 12]: 591 ± 88 μmol per kg body weight per h
diuresis [4, 13]: 3.11 ± 0.36 mL per kg body weight per h
sodium excretion [4, 13]: 830 ± 91 μmol per kg body weight per h
renal cortical vascular conductance ([5]; substance 1 5 mg/kg iv + Visipaque (FIG. 4)): maintained this parameter at levels seen in the vehicle control group
cortical pO2 ([5]; substance 1 5 mg/kg iv + Visipaque, until the end of the experiment (FIG. 5)): significant increase
renal cortical blood flow ([5]; substance 1 5 mg/kg iv + Visipaque, vs. Vehicle+Visipaque, 20 min measurement (FIG. 3)): sustained and significant increase
effect on Visipaque-induced changes of medullary blood flow and medullary vascular conductance ([5]; substance 1 5 mg/kg iv + Visipaque, not shown): only partially (but significantly) prevented these effects
effect on the Visipaque-induced increase in mean arterial blood pressure ([5]; substance 1 5 mg/kg iv bolus 30 min before Visipaque 1.5 mL i.a., not shown): partially prevented
hemodynamic parameters (arterial blood pressure, RBF) before the Visipaque challenge ([5]; substance 1 5 mg/kg iv bolus, not shown): did not modify
conclusion from receptor binding and enzyme profiling (adenosine A1 receptor): selective adenosine A1 receptor ligand with some phosphodiesterase PDE4 inhibiting activity

Permeability (%) (Permeability (Table 1)): 27.0%
PGP-factor (PGP): 10.1
Structure (SMILES): CS(=O)(=O)O.NC(=O)[C@@H]1C[C@H](O)CN1c1nc(-c2ccccc2)nc2[nH]ccc12 [substance 2, (4S)-4-hydroxy-1-(2-phenyl-7H-pyrrolo[2,3-a]pyrimidin-4-yl)-L-prolinamide methanesulfonate]

Structure (SMILES): Cn1c(=O)c2[nH]cnc2n(C)c1=O [theophylline]
protection against radiocontrast media induced nephropathy [1]: effective
